Source: patent US20220280594A1, “APPLICATION OF POLYPEPTIDE OR DERIVATIVE THEREOF” (CHENGDU HUITAI BIOMEDICINE CO., LTD., priority 2019, published 2022)
Ends that are not written are not given here. PEG = not defined here

Tests used:
[1] = tested on: human pharyngeal squamous-cell carcinoma cells (Fadu); assay: scratch assay, migration of Fadu cells; format: cell-based; conditions: 10 μM, 48 hours, control group 28.76 ± 4.08
Method: (§1) In the scratch assay, the cell migration rate was negatively correlated with the inhibitory effect of the drug component on tumor cell migration ability. The cell migration inhibition experiment was described as follows: tumor cells were cultured in vitro, cells in logarithmic growth phase were collected and seeded evenly in a 24-well plate at a density of 1-2×10^5 cells/well; the cells were cultured in a cell incubator until a monolayer was formed; a scratch tool was used to make a “-” (straight) scratch on the monolayer of cells; the cells were washed 1-3 times with PBS, and a medium (with 2% fetal bovine serum) containing specific test components was added to the culture. Experimental grouping: PBS control group; polypeptide or derivative thereof treatment group (N1-N54), 10 μM. Three independent parallel wells were set up in each group, and the cells were cultured continuously in a cell incubator for 48 hours. […] At least 3 representative images for each well were taken. ImageJ software was used to count the migration distance of the cells, and the cell migration rate was calculated as: cell migration rate (%)=(width of original scratch−width of current scratch)/width of original scratch×100.
This example was a scratch assay to evaluate the inhibitory effect of the polypeptide or derivative thereof (N1-N54) on the migration ability of human pharyngeal squamous-cell carcinoma cells (Fadu). The experimental method was as described in Example 2.

[2] = tested on: human lung squamous carcinoma cells (NCI-H226); assay: scratch assay, migration of NCI-H226 cells; format: cell-based; conditions: NCI-H226, 10 μM, 48 hours; control group 65.31 ± 3.19
Method: as §1
This example was a scratch assay to evaluate the inhibitory effect of the polypeptide or derivative thereof (N1-N54) on the migration ability of human lung squamous carcinoma cells (NCI-H226). The experimental method was as described in Example 2.

[3] = tested on: human breast cancer cells (MDA-MB-231); assay: scratch assay, migration of MDA-MB-231 cells; format: cell-based; conditions: MDA-MB-231, 10 μM, 48 hours; control group 36.19 ± 5.15
Method: as §1
This example was a scratch assay to evaluate the inhibitory effect of the polypeptide or derivative thereof (N1-N54) on the migration ability of human breast cancer cells (MDA-MB-231). The experimental method was as described in Example 2.

[4] = tested on: human non-small cell lung cancer cells (A549); assay: scratch assay, migration of A549 cells; format: cell-based; conditions: A549, 10 μM, 48 hours; control group 75.31 ± 8.19
Method: as §1
This example was a scratch assay to evaluate the inhibitory effect of the polypeptide or derivative thereof (N1-N54) on the migration ability of human non-small cell lung cancer (A549). The experimental method was as described in Example 2.

[5] = tested on: human melanoma cells (A375); assay: scratch assay, migration of A375 cells; format: cell-based; conditions: A375, 10 μM, 48 hours; control group 44.03 ± 6.21
Method: as §1
This example was a scratch assay to evaluate the inhibitory effect of the polypeptide or derivative thereof (N1-N54) on the migration ability of human melanoma cells (A375). The experimental method was as described in Example 2.

[6] = tested on: human lung cancer cells (A549) subcutaneous xenograft; assay: lung cancer subcutaneous xenograft animal model, intravenous injection; format: in vivo, mice (BALB/c-nu/nu); conditions: intravenous 60 mg/kg once every other day, 20 days; for Weight of tumor (g) (mean ± SD): control 2.53 ± 0.17; for Volume of tumor (mm^3) (mean ± SD): control 3373.26 ± 581.44
Method: Experimental animals: 4-6 weeks old female immunodeficiency mice (BALB/c-nu/nu, Beijing Vital River Laboratory Animal Technology Co., Ltd.).
Subcutaneous xenograft animal model. The number of cells inoculated subcutaneously vin mice was about 2×10^6/200 μL. When the volume of the subcutaneous tumor was greater than 100 mm^3, the mice were randomly divided into groups and subjected to treatment. When the mass volume of the tumors in model control group reached 2000 mm^3 or the animal dies, the treatment ended. The animals were dissected, the tumors were taken out, and the weight and volume of the tumors were measured. During the period of the entire experiment, the mice were observed and the body weight was measured every other day.
The method used in the efficacy test on the lung cancer subcutaneous xenograft animal model was as described in Example 5. The lung cancer cells were the human lung cancer cells (A549), and the route of administration was intravenous injection. This example involved a total of 3 experiments to evaluate N1-N15, N16-N30, and N31-N54 respectively. The experimental procedure, route of administration, dosage and frequency of administration, and detection method were all consistent in the three experiments. The experimental groups were model control group and polypeptide or derivative thereof treatment groups (N1-N15, N16-N30, or N31-N54). The drug dosage of the N1-N54 treatment groups was 60 mg/kg, and the treatment time was 20 days.

[7] = tested on: human breast cancer cells (MCF-7); assay: scratch assay, migration of MCF-7 cells; format: cell-based; conditions: MCF-7, 10 μM, 48 hours; control group 30.97 ± 1.79
Method: as §1
This example was a scratch assay to evaluate the inhibitory effect of the polypeptide or derivative thereof (N1-N54) on the migration ability of human breast cancer cells (MCF-7). The experimental method was as described in Example 2.

[8] = tested on: human liver cancer cells (HepG2); assay: scratch assay, migration of HepG2 cells; format: cell-based; conditions: HepG2, 10 μM, 48 hours; control group 71.01 ± 6.63
Method: as §1
This example was a scratch assay to evaluate the inhibitory effect of the polypeptide or derivative thereof (N1-N54) on the migration ability of human liver cancer cells (HepG2). The experimental method was as described in Example 2.

[9] = tested on: human prostate cancer cells (22RV1); assay: scratch assay, migration of 22RV1 cells; format: cell-based; conditions: 22RV1, 10 μM, 48 hours; control group 25.41 ± 5.01
Method: as §1
This example was a scratch assay to evaluate the inhibitory effect of the polypeptide or derivative thereof (N1-N54) on the migration ability of human prostate cancer cells (22RV1). The experimental method was as described in Example 2.

[10] = tested on: human lung cancer cells (95D); assay: scratch assay, migration of 95D cells; format: cell-based; conditions: 10 μM, 48 hours, control group 55.3 ± 3.19
Method: as §1
This example was a scratch assay to evaluate the inhibitory effect of the polypeptide or derivative thereof (N1-N54) on the migration ability of human lung cancer cells (95D). The experimental method was as described in Example 2.

[11] = tested on: human colon cancer cells (HCT-116); assay: scratch assay, migration of HCT-116 cells; format: cell-based; conditions: HCT-116, 10 μM, 48 hours; control group 47.78 ± 6.07
Method: as §1
This example was a scratch assay to evaluate the inhibitory effect of the polypeptide or derivative thereof (N1-N54) on the migration ability of human colon cancer cells (HCT-116). The experimental method was as described in Example 2.

Row | Substance | Migration rate (%) (mean ± SD, P) [1] | Migration rate (%) (mean ± SD, P) [2] | Migration rate (%) (mean ± SD, P) [3] | Migration rate (%) (mean ± SD, P) [4] | Migration rate (%) (mean ± SD, P) [5] | Weight of tumor (g) (mean ± SD) [6] | Volume of tumor (mm^3) (mean ± SD) [6] | Migration rate (%) (mean ± SD, P) [7] | Migration rate (%) (mean ± SD, P) [8] | Migration rate (%) (mean ± SD, P) [9] | Migration rate (%) (mean ± SD, P) [10] | Migration rate (%) (mean ± SD, P) [11]
1 | N48: SEQ ID NO: 1 with A7R, deletion of position 11 and position 18, PEG modification at the carboxyl terminal (YRVRFLRKENTQDAED-{PEG}; reading uncertain) | 8.78 ± 4.34,*** % | 25.07 ± 4.31,*** % | 13.06 ± 3.2,** % | 22.04 ± 3.01,*** % | 9.09 ± 2.23,*** % | 0.71 ± 0.37 | 1558.12 ± 436.42 | 15.62 ± 2.70,* % | 25.43 ± 5.00,*** % | 5.61 ± 3.14,** % | 25.07 ± 6.31,** % | 18.03 ± 4.62,** %
2 | N9: SEQ ID NO: 1 with deletion of positions 15-18 and PEG modification at the amino terminal ({PEG}-YRVRFLAKENVTQD; reading uncertain) | 16.82 ± 3.57,* % | 35.47 ± 5.20,** % | 15.96 ± 3.92,* % | 56.92 ± 4.49,** % | 8.96 ± 2.46,*** % | 0.82 ± 0.29 | 1241.9 ± 388.92 | 5.28 ± 2.11,*** % | 35.11 ± 5.16,** % | 14.84 ± 2.96,* % | 32.27 ± 4.69,** % | 25.96 ± 3.84,** %
3 | N26: SEQ ID NO: 1 with substitution A15R, addition of one amino acid at the amino terminal and one at the carboxyl terminal (FYRVRFLAKENVTQDREDNC) | 13.70 ± 4.57,** % | 18.41 ± 7.90,*** % | 19.02 ± 5.06,* % | 25.04 ± 6.01,** % | 12.23 ± 2.48,*** % | 0.57 ± 0.22 | 1163.91 ± 457.09 | 10.43 ± 3.34,** % | 16.86 ± 7.90,*** % | 11.42 ± 2.08,* % | 37.20 ± 5.94,** % | 9.81 ± 2.92,*** %
